Measured values from ChEMBL document CHEMBL1158137, “Absolute configuration of sporotricale and structure of 6-hydroxysporotricale” (J Nat Prod, 2006).
Calls of active or inactive are those of the source. The calls are words filed in the database; no cut-off is given here.

Tests used:
BMEC = assay: Cytotoxicity against bovine microvascular endothelial cells; type: cell-based, Bos taurus; details: cattle
Gallus gallus = species: Gallus gallus; assay: Antiangiogenic activity against bFGF-induced angiogenesis in chick embryo chorioallantoic membrane; type: functional, tissue-based

COc1cc(O)c(O)c2c1C(=O)O[C@@H]2CCCCCCCCCC1(O)CC[C@@H](C)O1 (stereo partly specified)
Activity (BMEC): Non-toxic | Activity (Gallus gallus): Active

COc1cc(O)cc2c1C(=O)O[C@@H]2CCCCCCCCCC1(O)CC[C@@H](C)O1 (stereo partly specified)
Activity (BMEC): Non-toxic | Activity (Gallus gallus): Active

COc1cc(O)cc2c1C(=O)O[C@@H]2CCCCC[C@@H]1CCC[C@]2(CC[C@@H](C)O2)O1
Activity (BMEC): Non-toxic | Activity (Gallus gallus): Active
